Measured values reported in article PMC11769347, “Development of Novel Fluticasone/Salmeterol/Tiotropium-Loaded Dry Powder Inhaler and Bioequivalence Assessment to Commercial Products in Rats” (Pharmaceutics, 2025).

Tests used:
Type in all cases: physicochemical
[1] = Dissolution of fine particles less than 5 μm in simulated lung fluid; conditions: 37 °C, 75 rpm; for dissolved: within 15 min
Experimental: To collect the fine particles less than 5 μm on a glass fiber filter, abbreviated ACI was used [17, 18]. The micronized FP/SX/TB blend was dispersed at a flow rate of 60 L/min, and 4.0 L of air was withdrawn. The glass fiber filter with collected fine particles was assembled into a filter holder (Copley Scientific, Nottingham, UK). […] The filter holder was placed in a dissolution vessel, and 500 mL of simulated lung fluid was used as dissolution media [19]. The dissolution media was maintained at a temperature of 37 ± 0.5 °C with an agitation speed of 75 rpm. At a predetermined time, 2 mL of the media was collected and diluted with 0.1 M HCl, edetate disodium dihydrate, and methanol to achieve a ratio of 900:50:0.075:50. The diluted solution was filtered through a 0.45 μm PVDC membrane filter and analyzed by HPLC as described in Section 2.5.

[2] = Effect of capsule components on drug stability (degraded compounds by HPLC); conditions: in various capsules, 60 °C for 2 weeks; % of the initial amount
Experimental: The effect of capsule components on the stability of FP, SX, or TB was investigated. The main materials and gelling agent of the capsule are described in Table 2. Each capsule was packed in an aluminum–aluminum blister and stored at 60 °C for 2 weeks. For comparison, commercial products are stored under the same conditions. Degraded compounds of FP, SX, or TB were analyzed as described in Section 2.5.
Degradation compounds of FP, SX, or TB were quantified using a high-performance liquid chromatography (HPLC) system (Hitachi, Tokyo, Japan) comprising a 5110 pump, 5430 detectors, a 5310 column oven, and 5210 autosamplers. While FP and SX were analyzed together, TB was assessed using a separate set of analytical conditions. Inertsil® ODS-2 column (4.6 mm × 250 mm, 5 μm) was used to analyze the degradation compounds of FP and SX. The powder, equivalent to 2.5 mg of FP and 0.725 mg of SX, was introduced into 5 mL of a mixture consisting of phosphoric acid, methanol, and distilled water in a ratio of 0.05:89.95:10. The mixture solution was vortexed for 30 min and passed through a 0.45 μm membrane filter. Fifty microliter aliquots of the filtered solution were injected and detected at 228 nm. […] Fifteen microliter aliquots of the sample solution were injected into the column at 50 °C and monitored at […] with a flow rate of 1.2 mL/min.

[3] = Particle size by laser diffraction (HELOS) after air jet milling
Experimental: The drug was supplied into a jet mill at a rate of 10 g/min with injection air and grinding air pressures set at among 1–4 bars. The particle size of the micronized TB was measured using high-resolution laser diffraction spectroscopy (HELOS; Sympatec, Clausthal-Zellerfeld, Germany).

[4] = powder without the air jet milling process (as from the manufacturer)

| SMILES | maximum dissolution [1] | total degraded compound of FP [2] | particle size [3, 4] | dissolved [1] | particle size ([3]; air jet mill condition I: injection air pressure 2 bar, grinding air pressure 1 bar) [μm] | particle size ([3]; air jet mill condition II: injection air pressure 3 bar, grinding air pressure 2 bar) [μm] | particle size ([3]; air jet mill condition III: injection air pressure 4 bar, grinding air pressure 3 bar) [μm] |
| --- | --- | --- | --- | --- | --- | --- | --- |
| CCC(=O)O[C@]1(C(=O)SCF)[C@H](C)C[C@H]2[C@@H]3C[C@H](F)C4=CC(=O)C=C[C@]4(C)[C@@]3(F)[C@@H](O)C[C@@]21C [FP, fluticasone propionate] | approximately 20% | less than 0.7% | less than 5 μm | – | – | – | – |
| C[N+]1(C)[C@@H]2C[C@@H](OC(=O)C(O)(c3cccs3)c3cccs3)C[C@H]1[C@@H]1O[C@@H]12 [TB, tiotropium bromide] | – | – | 6.1 ± 0.8 μm | more than 85% | 3.1 ± 0.3 | 2.5 ± 0.1 | 1.4 ± 0.3 |
| OCc1cc(C(O)CNCCCCCCOCCCCc2ccccc2)ccc1O (stereo not shown) [SX, salmeterol xinafoate] | – | – | less than 5 μm | more than 85% | – | – | – |
